Laboratory results: patent US20260256765A1, “METHOD OF TREATING DISEASE USING COMPOUND, AND USE OF COMPOUND” (TENNOR THERAPEUTICS (SUZHOU) LIMITED, priority 2023, published 2026)
≈ marks a conversion by molar mass, not a printed value. Read-outs that look alike come from different tables or passages of the source.

Key:
Assay type in all cases: cell-based
[1] = system: Gram-positive bacteria (55 strains); assay: MIC by standard broth dilution against clinical DFI isolates, Gram-positive bacteria
Procedure: (§1) Preparation of test strains: In this example, foot specimens were collected from 49 patients with type II diabetes. Isolates were obtained from the specimens described above through homogenization, plating, and culture at 37° C., and after the removal of fungi and strains with poor growth or strains that could not be isolated and purified, a total of 69 clinical strains were obtained. Among these, 55 strains were Gram-positive bacteria and 14 strains were Gram-negative bacteria. Of the Gram-positive bacteria, 43 strains were staphylococci, including 18 Staphylococcus aureus strains, 8 Staphylococcus epidermidis strains, and 5 Staphylococcus lugdunensis strains. One ATCC standard strain was additionally used as a standard and quality control strain.
(§2) Determination of antibacterial activity: The minimum inhibitory concentration (MIC) and the minimum biofilm bactericidal concentration (MBBC) for in vitro biofilms of the compound of formula (I) and control drugs (see details in 2) against 69 clinically isolated diabetic foot infection clinical strains were evaluated using the standard broth dilution method and the in vitro biofilm culture and drug susceptibility methods reported in the literature.

[2] = system: Gram-negative bacteria (14 strains); assay: MIC by standard broth dilution against clinical DFI isolates, Gram-negative bacteria
Procedure: as §1, §2

[3] = system: Gram-positive bacteria (55 strains); assay: MBBC for in vitro biofilms of clinical DFI isolates, Gram-positive bacteria
Procedure: as §1
(§3) Preparation of biofilms: In a sterile environment, a single, identified, and thawed colony was picked with an inoculation loop and bacterial inoculums were adjusted to a 0.5 McFarland standard, which served as an initial bacterial inoculum. The bacterial inoculum was diluted in a 1:200 ratio by adding 50 μL of the initial bacterial inoculums to 10 mL of a CAMHB medium. 150 μL of the bacterial inoculums was transferred to a CBD plate using a pipette. The inoculated CBD plate was incubated in an incubator at 35±2° C. for 16-20 hours.
as §2

[4] = system: Gram-negative bacteria (14 strains); assay: MBBC for in vitro biofilms of clinical DFI isolates, Gram-negative bacteria
Procedure: as §1, §3, §2

[5] = system: Staphylococci (43 strains); assay: MIC against clinical DFI isolates, staphylococci total
Procedure: as §1, §2

[6] = system: Staphylococcus aureus (18 strains); assay: MIC against clinical DFI isolates, Staphylococcus aureus
Procedure: as §1, §2

[7] = system: Staphylococci (43 strains); assay: MBBC against biofilms of clinical DFI isolates, staphylococci total
Procedure: as §1, §3, §2

[8] = system: Staphylococcus aureus (18 strains); assay: MBBC against biofilms of clinical DFI isolates, Staphylococcus aureus
Procedure: as §1, §3, §2

[9] = system: Staphylococcus epidermidis (8 strains); assay: MIC against clinical DFI isolates, Staphylococcus epidermidis
Procedure: as §1, §2

[10] = system: Staphylococcus epidermidis (8 strains); assay: MBBC against biofilms of clinical DFI isolates, Staphylococcus epidermidis
Procedure: as §1, with “strain. […]” for “strain.”
as §2

[11] = Gram-positive bacteria (55 strains), clinical DFI isolates
[12] = Gram-positive bacteria (55 strains), clinical DFI isolates, read-out: MIC50
[13] = biofilms, Gram-positive bacteria (55 strains), read-out: MBBC50
[14] = biofilms, Gram-positive bacteria (55 strains), read-out: MBBC90
[15] = Staphylococci (43 strains), total, read-out: MIC90
[16] = Staphylococcus aureus (18 strains)
[17] = Staphylococcus aureus (18 strains), read-out: MIC90
[18] = biofilms, Staphylococci (43 strains), total, read-out: MBBC50
[19] = biofilms, Staphylococci (43 strains), total, read-out: MBBC90
[20] = biofilms, Staphylococcus aureus (18 strains), read-out: MBBC50
[21] = biofilms, Staphylococcus aureus (18 strains), read-out: MBBC90
[22] = Staphylococci (43 strains), total
[23] = Staphylococci (43 strains), total, read-out: MIC50
[24] = Staphylococcus aureus (18 strains), read-out: MIC50
[25] = biofilms, Staphylococcus aureus (18 strains)
[26] = biofilms, Gram-positive bacteria (55 strains)

Row | Compound | MIC90 [1, 11] [µg/mL] | MIC50 [1, 12] [µg/mL] | MIC50 [2] [µg/mL] | MIC90 [2] [µg/mL] | MBC [3, 13] [µg/mL] | MBC [3, 14] [µg/mL] | MBC ([4]; read-out: MBBC50) [µg/mL] | MBC ([4]; read-out: MBBC90) [µg/mL] | MIC90 [5, 15] [µg/mL] | MIC range [6, 16] | MIC90 [6, 17] [µg/mL] | MBC [7, 18] [µg/mL] | MBC [7, 19] [µg/mL] | MBC [8, 20] [µg/mL] | MBC [8, 21] [µg/mL] | MIC range [5, 22] | MIC50 [5, 23] [µg/mL] | MIC50 [6, 24] [µg/mL] | MIC range [9] | other results
1 | CCC[C@@H]1C[C@@H](C(=O)N[C@@H]([C@H]2O[C@H](SC)[C@H](O)[C@@H](O)[C@H]2O)[C@H](C)Cl)N(C)C1 [Clindamycin] | > 128 | 0.25 (≈ 0.588 µM) | > 128 | > 128 | > 128 | > 128 | > 128 | > 128 | 128 (≈ 301 µM) | ≤0.06~0.5 μg/mL | 0.25 (≈ 0.588 µM) | > 128 | > 128 | > 128 | > 128 |  |  |  |  | MIC50 [5]: 0.125 µg/mL (≈ 0.294 µM); MIC50 ([6]; Staphylococcus aureus): 0.125 µg/mL (≈ 0.294 µM)
2 | CO[C@H]1/C=C/O[C@@]2(C)Oc3c(C)c(O)c4c(O)c(c(/C=N/N5CCC(N(C)C6([C@@H]7CCN(c8c(F)cn9c(=O)c(C(=O)O)cc(C%10CC%10)c9c8C)C7)CC6)CC5)c(O)c4c3C2=O)NC(=O)/C(C)=C\C=C\[C@H](C)[C@H](O)[C@@H](C)[C@@H](O)[C@@H](C)[C@H](OC(C)=O)[C@@H]1C [Compound of formula (I)] | 0.25 | ≤ 0.015 | > 32 | > 32 | 0.125 | 16 | > 16 | > 32 | ≤ 0.015 | ≤0.015~0.03 μg/mL | ≤ 0.015 | 0.06 | 0.5 | 0.25 | 0.5 | ≤0.015~0.25 μg/mL | ≤ 0.015 | ≤ 0.015 | ≤0.015~0.03 ^ μg/mL | MIC50 ([1]; Gram-positive bacterial isolates, text b97): < 0.015 µg/mL; MIC50 ([5]; staphylococci, read-out: MIC50): < 0.015 µg/mL; MIC90 ([5]; staphylococci, read-out: MIC90): 0.015 µg/mL; MIC50 ([6]; Staphylococcus aureus, read-out: MIC50): < 0.015 µg/mL; MIC90 ([6]; Staphylococcus aureus, read-out: MIC90): 0.015 µg/mL; MBBC range ([7]; biofilms, Staphylococci (43 strains), total): ≤0.015~1 μg/mL; MBBC range ([7]; in vitro biofilms of staphylococci): 0.015 to 1 g/mL; MBBC50 ([7]; staphylococci biofilms): 0.06 µg/mL; MBBC90 ([7]; staphylococci biofilms): 0.5 µg/mL; MBBC50 ([8]; Staphylococcus aureus biofilms): 0.25 µg/mL; MBBC range [8, 25]: 0.03~0.5 μg/mL; MBBC range ([8]; in vitro biofilms of Staphylococcus aureus): 0.03 to 0.5 g/mL; MBBC range [10]: ≤0.015~0.06 ^ μg/mL
3 | CC(=O)NC[C@H]1CN(c2ccc(N3CCOCC3)c(F)c2)C(=O)O1 [Linezolid] |  |  | > 128 | > 128 | > 128 | > 128 | > 128 | > 128 | 4 (≈ 11.9 µM) | 2~4 μg/mL | 4 (≈ 11.9 µM) | > 128 | > 128 | > 128 | > 128 | 0.5~4 μg/mL | 2 (≈ 5.93 µM) | 2 (≈ 5.93 µM) | 2~4 μg/mL | MBBC50 [3, 26]: >128 µg/mL; MBBC90 [3, 26]: >128 µg/mL; MIC50 ([5]; staphylococci, read-out: MIC50): 2 µg/mL (≈ 5.93 µM); MIC90 ([5]; staphylococci, read-out: MIC90): 4 µg/mL (≈ 11.9 µM)
4 | C/C(=C\C(=O)OCCCCCCCCC(=O)O)C[C@@H]1OC[C@H](C[C@@H]2O[C@H]2[C@@H](C)[C@H](C)O)[C@@H](O)[C@H]1O [Mupirocin] | 64 (≈ 128 µM) |  | > 128 | > 128 | > 128 | > 128 | > 128 | > 128 | 32 (≈ 63.9 µM) |  | > 128 | > 128 | > 128 | > 128 | > 128 |  | 0.25 (≈ 0.499 µM) | 0.25 (≈ 0.499 µM) | 0.25~0.5 μg/mL | 
5 | Cc1onc(-c2ccccc2)c1C(=O)N[C@@H]1C(=O)N2[C@@H]1SC(C)(C)[C@@H]2C(=O)O [Oxacillin] |  |  | > 128 | > 128 | > 128 | > 128 | > 128 | > 128 | 128 (≈ 319 µM) |  | 64 (≈ 159 µM) | > 128 | > 128 | 32 (≈ 79.7 µM) | > 128 |  | 2 (≈ 4.98 µM) | 0.5 (≈ 1.25 µM) |  | 
6 | CO[C@H]1/C=C/O[C@@]2(C)Oc3c(C)c(O)c4c(O)c(c(/C=N/N5CCN(C)CC5)c(O)c4c3C2=O)NC(=O)/C(C)=C\C=C\[C@H](C)[C@H](O)[C@@H](C)[C@@H](O)[C@@H](C)[C@H](OC(C)=O)[C@@H]1C [Rifampicin] | 0.5 (≈ 0.608 µM) | ≤ 0.015 | 32 (≈ 38.9 µM) | > 32 | 8 (≈ 9.72 µM) | > 16 | > 16 | > 32 | ≤ 0.015 | ≤0.015 µg/mL | ≤ 0.015 | 4 (≈ 4.86 µM) | > 16 | 16 (≈ 19.4 µM) | > 16 |  | ≤ 0.015 | ≤ 0.015 | ≤0.015 µg/mL | MBBC range [8, 25]: ≤0.03~16 ^ μg/mL; MBBC range [10]: 0.03~16 ^ μg/mL
7 | CN[C@H](CC(C)C)C(=O)N[C@H]1C(=O)N[C@@H](CC(N)=O)C(=O)N[C@H]2C(=O)N[C@H]3C(=O)N[C@H](C(=O)N[C@H](C(=O)O)c4cc(O)cc(O)c4-c4cc3ccc4O)[C@H](O)c3ccc(c(Cl)c3)Oc3cc2cc(c3O[C@@H]2O[C@H](CO)[C@@H](O)[C@H](O)[C@H]2O[C@H]2C[C@](C)(N)[C@H](O)[C@H](C)O2)Oc2ccc(cc2Cl)[C@H]1O [Vancomycin] | 2 (≈ 1.38 µM) | 2 (≈ 1.38 µM) | > 128 | > 128 |  |  | > 128 | > 128 |  | 1~2 μg/mL |  |  |  |  |  | 1~4 μg/mL |  |  | 2~4 μg/mL | MBBC50 [3, 26]: >128 µg/mL; MBBC90 [3, 26]: >128 µg/mL; MBC ([3]; read-out: MBBC50): > 128 µg/mL; MBC ([3]; read-out: MBBC90): > 128 µg/mL; MIC50 [5]: 2 µg/mL (≈ 1.38 µM); MIC90 [5]: 2 µg/mL (≈ 1.38 µM); MIC50 ([5]; staphylococci): 2 µg/mL (≈ 1.38 µM); MIC90 ([5]; staphylococci): 2 µg/mL (≈ 1.38 µM); MIC50 ([6]; Staphylococcus aureus): 2 µg/mL (≈ 1.38 µM); MIC90 ([6]; Staphylococcus aureus): 2 µg/mL (≈ 1.38 µM); MBC ([7]; read-out: MBBC50): > 128 µg/mL; MBC ([7]; read-out: MBBC90): > 128 µg/mL; MBC ([8]; Staphylococcus aureus, read-out: MBBC50): > 128 µg/mL; MBC ([8]; Staphylococcus aureus, read-out: MBBC90): > 128 µg/mL
